Reference: a compilation of properties of binary mixtures (doi:10.1016/j.fluid.2006.05.028)

Assay: xn = mol fraction of the nth substance listed
Details: 298.15 K, 101.3 kPa

## [Br][Al]([Br])[Br] + CC[n+]1ccccc1.[Br-]
x2 = 0.65
  electrical conductivity: 0.292 S/m

## O + CCOS(=O)(=O)[O-].CC[n+]1ccn(C)c1
x1 = 1
  electrical conductivity: 0.0026 S/m

## CCOS(=O)(=O)[O-].CC[n+]1ccn(C)c1 + O
x1 = 0.004
  electrical conductivity: 1.35 S/m
x1 = 0.0084
  electrical conductivity: 2.11 S/m
x1 = 0.0133
  electrical conductivity: 2.76 S/m
x2 = 0.4084
  electrical conductivity: 1.3 S/m
x2 = 0.5931
  electrical conductivity: 2.03 S/m
x2 = 0.6983
  electrical conductivity: 2.55 S/m
x2 = 0.7663
  electrical conductivity: 3.03 S/m
x2 = 0.8139
  electrical conductivity: 3.54 S/m
x2 = 0.876
  electrical conductivity: 4.14 S/m
x2 = 0.8974
  electrical conductivity: 4.31 S/m
x2 = 0.9148
  electrical conductivity: 4.41 S/m
x2 = 0.9413
  electrical conductivity: 4.43 S/m
x2 = 0.9516
  electrical conductivity: 4.33 S/m
x2 = 0.9606
  electrical conductivity: 4.16 S/m
